Data published in the supplement of paper PMC11208160.

Experiment: recombinant UMI read abundance after kanamycin selection (control-corrected) (log10(CPM+1)); higher = more efficient recombination; extreme values may be limits of the assay; sequences stand for … in AGTGCAGAGAAAATCGGCCAGTTTTCTCTGCCTGCAGTCCGCATGCCGTGGGACCCCTTGGGTTCTAACCTGTTGCCTAGATTTATGCAGCGGACTGCCTTTCTCCCAAAGTGATAAACCGG…AGGTTGGTTTCACT; site = the 11-nt donor
Method in brief: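 Reported values are log10(CPM+1) from a pooled Escherichia coli screen of donor and donor-binding-loop pairs for the IS621 bridge recombinase. Selection used IPTG (0.07 mM) plus kanamycin, against unselected plating, each in two replicates. Recombinant UMIs were amplified across the donor–target junction, sequenced, converted to CPM, averaged over replicates and scaled by control-derived factors.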
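Further: IS621 bridge recombinase in Escherichia coli cells against a fixed T5 target plasmid.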

| Sequence | recombinant UMI read abundance (log10) |
| --- | --- |
| CGGACACCATGGACCGGTTTTCCCGGTAATCCGTATTTGCT (site CGGACATCTAG) | 0 |
| CGGACAGCATGGACCGGTTTTCCCGGTAATCCGTATTTGCT (site CGGACAACTAG) | 0.393 |
| CGGACAGCATGGACCGGTTTTCCCGGTAATCCGTATTTGCT (site CGGACACCTAG) | 0 |
| CGGACAGCATGGACCGGTTTTCCCGGTAATCCGTATTTGCT (site CGGACAGCTAG) | 2.07 |
| CGGACAGCATGGACCGGTTTTCCCGGTAATCCGTATTTGCT (site CGGACATCTAG) | 0 |
| CGGACATCATGGACCGGTTTTCCCGGTAATCCGTATTTGTT (site CGGACATCTAA) | 2.07 |
| CGGACATCATGGACCGGTTTTCCCGGTAATCCGTATTTGTT (site CGGACATCTAC) | 0.00517 |
| CGGACATCATGGACCGGTTTTCCCGGTAATCCGTATTTGTT (site CGGACATCTAG) | 0 |
| CGGACATCATGGACCGGTTTTCCCGGTAATCCGTATTTGTT (site CGGACATCTAT) | 0 |
| CGGACTCCATGGACCGGTTTTCCCGGTAATCCGTATTTGTG (site CGGAATCCTAA) | 0.00428 |
| CGGACTCCATGGACCGGTTTTCCCGGTAATCCGTATTTGTG (site CGGACTCCTCA) | 0.0192 |
| CGGAGATCATGGACCGGTTTTCCCGGTAATCCGTATTTGCT (site CGGAAATCTAG) | 1.27 |
| CGGAGATCATGGACCGGTTTTCCCGGTAATCCGTATTTGCT (site CGGACATCTAG) | 0 |
| CGGAGATCATGGACCGGTTTTCCCGGTAATCCGTATTTGCT (site CGGAGATCTAG) | 3.03 |
| CGGAGATCATGGACCGGTTTTCCCGGTAATCCGTATTTGCT (site CGGATATCTAG) | 0 |
| CGGAGGACATGGACCGGTTTTCCCGGTAATCCGTATTTGCC (site CGGAGGACTGG) | 2.76 |
| CGGAGTCCATGGACCGGTTTTCCCGGTAATCCGTATTTGTC (site CGGAATCCTAA) | 0 |
| CGGAGTCCATGGACCGGTTTTCCCGGTAATCCGTATTTGTC (site CGGAGTCCTGA) | 1.34 |
| CGGATGACATGGACCGGTTTTCCCGGTAATCCGTATTTGAT (site CGGATGACTAT) | 2.14 |

| Sequence | recombinant UMI read abundance (log10) |
| --- | --- |
| CGGATTCCATGGACCGGTTTTCCCGGTAATCCGTATTTGTA (site CGGAATCCTAA) | 0.0133 |
| CGGATTCCATGGACCGGTTTTCCCGGTAATCCGTATTTGTA (site CGGATTCCTTA) | 0 |
| CGGATTTCATGGACCGGTTTTCCCGGTAATCCGTATTTGTT (site CGGAATCCTAA) | 0 |
| CGGATTTCATGGACCGGTTTTCCCGGTAATCCGTATTTGTT (site CGGATTTCTAA) | 0.891 |
| CGGCAACCATGGACCGGTTTTCCCGGTAATCCGTATTTGAT (site CGGAAACCTAT) | 0 |
| CGGCAACCATGGACCGGTTTTCCCGGTAATCCGTATTTGAT (site CGGCAACCTAT) | 0 |
| CGGCAACCATGGACCGGTTTTCCCGGTAATCCGTATTTGAT (site CGGGAACCTAT) | 0 |
| CGGCAACCATGGACCGGTTTTCCCGGTAATCCGTATTTGAT (site CGGTAACCTAT) | 0 |
| CGGCACCCATGGACCGGTTTTCCCGGTAATCCGTATTTGTT (site CGGAATCCTAA) | 0.00519 |
| CGGCACCCATGGACCGGTTTTCCCGGTAATCCGTATTTGTT (site CGGCACCCTAA) | 0.393 |
| CGGCATCCATGGACCGGTTTTCCCGGTAATCCGTATTTGTC (site CGGCATCCTGA) | 0 |
| CGGCATGCATGGACCGGTTTTCCCGGTAATCCGTATTTGTT (site CGGAATCCTAA) | 0.00719 |
| CGGCATGCATGGACCGGTTTTCCCGGTAATCCGTATTTGTT (site CGGCATGCTAA) | 2.31 |
| CGGCCGTCATGGACCGGTTTTCCCGGTAATCCGTATTTGAT (site CGGCCGTCTAT) | 0.968 |
| CGGCGGCCATGGACCGGTTTTCCCGGTAATCCGTATTTGTC (site CGGCGGCCTGA) | 0.965 |
| CGGCTGCCATGGACCGGTTTTCCCGGTAATCCGTATTTGCA (site CGGCTGCCTTG) | 1.18 |
| CGGCTGGCATGGACCGGTTTTCCCGGTAATCCGTATTTGGT (site CGGCTGGCTAC) | 1.17 |
| CGGGAACCATGGACCGGTTTTCCCGGTAATCCGTATTTGAA (site CGGGAACCTAT) | 0 |
